System: Erwinia amylovora
Assay: Transmission electron microscopy of treated cells
Format: cell-based, Erwinia amylovora strain PGL Z1
Conditions: antibiotic control 0.5 mg/mL
Experimental: Aliquots of E. amylovora suspensions were incubated with the KL29 for 15 min at room temperature to investigate peptide antibacterial modes of action (lytic and non-lytic). E. amylovora suspensions treated with 0.5 mg/mL of streptomycin (bacteriostatic antibiotic), and ampicillin (bactericidal antibiotic) were used as controls. Preparations were observed under TEM (FEI MORGAGNI 282D, Hillsboro, OR, USA) by the dip method: the carbon coated copper/rhodium grids were incubated with treated and untreated bacterial suspension for 2 min, and then rinsed with 200 μL of distilled water. Negative staining was obtained by floating the grids on 200 μL of 0.5 % w/v UA-zero EM STAIN (Agar-Scientific Ltd., Stansted, UK) solution and observing them under the EM using an accelerating voltage of 80 kV.

Row | SMILES | TEM morphology of treated E. amylovora cells (in words)
1 | [H]/N=C(/N)N[C@H]1[C@H](O)[C@@H](O)[C@H](O[C@@H]2O[C@@H](C)[C@](O)(C=O)[C@H]2O[C@@H]2O[C@@H](CO)[C@H](O)[C@@H](O)[C@@H]2NC)[C@@H](N/C(N)=N\[H])[C@@H]1O [streptomycin] | reduced cell lysis and morphological alterations similar to those treated with KL29 at 250 µM
2 | CC1(C)S[C@@H]2[C@H](NC(=O)[C@H](N)c3ccccc3)C(=O)N2[C@H]1C(=O)O [ampicillin] | damaged cell walls and the decomposition of inner structures

Reference: publication PMC9824012, “Exploring Antimicrobial Peptides Efficacy against Fire Blight (Erwinia amylovora)” (Plants, 2022)
